Data reported in US6348477B1, “Anti-herpesvirus compounds and methods for identifying, making and using same” (Boehringer Ingelheim(Canada) Ltd., priority 1995, dated 2002).
Marks after values point to notes of the source that are not given here.

How the values were obtained:
[1] = tested on: Hs-68 cells; test: Cytotoxicity noted in the CMV assays (table footnote); format: cell-based; details: Group 1 Table 1
Description: (§1) Hs-68 cells (ATCC # CRL 1635) were seeded in 96 well microtiter plates at 10,000 cells/well in 100 μL of DMEM medium (Gibco Canada Inc.) supplemented with 10% fetal bovine serum (FBS, Gibco Canada Inc.). The plates were incubated for 3 days at 37° to allow the cells to reach 80-90% confluency prior to the assay.
as §1, with “( ATCC” for “(ATCC”, “12-well” for “96 well microtiter”, “83,000” for “10,000”, “1 mL” for “100 μL”

[2] = tested on: HCMV (strain AD169); test: Inhibition of HCMV replication, ELISA assay (Hs-68 cells, p28); format: cell-based, human cytomegalovirus; details: Group 1 Table 1, read-out: ELISA CMV EC50
Description: (§2) C) Inhibition of Human Cytomegalovirus (HCMV) replication
(§3) The effect of compounds on the replication of HCMV has been measured by using an ELISA-based assay (ELISA) and a plaque reduction assay (PRA).
as §1
The medium was removed from wells by aspiration. The cells then were infected at a multiplicity of infection (MOI) of 0.01 PFU/cell with 50 μL of HCMV (strain AD169, ATCC VR-538) in DMEM medium supplemented with 5% heat inactivated FBS (assay medium). The virus was allowed to adsorb to cells for 2 h at 37°. Following viral adsorption, the medium was removed from the wells by aspiration. The cells were washed twice with 200 μL of assay medium to remove unabsorbed virus. The cells were then incubated with or without 100 μL of appropriate concentrations of test reagent in assay medium. After 8 days of incubation at 37°, the extent of viral replication was determined by an ELISA assay which detects the late structural protein p28 of HCMV.
Eight days after infection, the medium was aspirated from the wells. Non-specific binding sites were blocked by adding 200 μL of phosphate buffered saline containing 1% (w/v) bovine serum albumin (blocking buffer) to each well and incubating the plates for 30 min at room temperature. After removal of the blocking buffer by aspiration, the cells were fixed with 100 μL of cold ethanol-acetone solution (95:5) per well. The plates were placed at −20° for 30 min. The plates were washed 4 times with phosphate buffered saline containing 0.05% (v/v) polyoxyethylene sorbitan monolaurate (Tween 20®). Thereafter, 100 μL of mAb UL99 (Advanced Biotechnologies Inc., #13-130-100) recognizing HCMV protein p28 was added to each wells and plates were incubated for 2 h at room temperature. The plates were washed four times with 200 μL of the above-noted phosphate buffered saline/Tween-20® solution. The cells were then incubated with 100 μL of sheep anti-mouse IgGγ horseradish peroxidase conjugated for 2 h at room temperature. The plates were then washed four times with 200 μL of above-noted phosphate buffered saline/Tween-20®solution. Thereafter, 100 μL of ortho phenylenediamine dihydrochloride (OPD, Gibco Canada Inc.) solution was added to each well and the plates were agitated on a microplate shaker for 30 min in the dark. Color development was monitored at 450 nm using a microplate spectrophotometer.
The SAS program was used to calculate the % inhibition of viral replication and to generate EC50 values.
The EC50 values obtained according to this assay method for certain thiazolylphenyl derivatives of this invention are listed in the following tables under the heading ELISA CMV.

[3] = tested on: HCMV (strain AD169); test: Inhibition of HCMV replication, plaque reduction assay (PRA, Hs-68 cells); format: cell-based, human cytomegalovirus; details: Group 1 Table 1, read-out: PRA CMV EC50
Description: as §2, §3
as §1, with “( ATCC” for “(ATCC”, “12-well” for “96 well microtiter”, “83,000” for “10,000”, “1 mL” for “100 μL”
The medium was removed from the cells by aspiration. The cells were then infected with approximately 50 PFU of HCMV (strain AD169, ATCC VR-538) in DMEM medium supplemented with 5% inactivated FBS (assay medium). The virus was allowed to adsorb to cells for 2 h at 37°. Following viral adsorption, the medium was removed from the wells by aspiration. The cells were then incubated with or without 1 mL of appropriate concentrations of test reagent in assay medium. After 4 days of incubation at 37°, the medium was exchanged with fresh medium containing test compound and 4 days later the cells were fixed with 1% aqueous formaldehyde and stained with a 2% crystal violet solution in 20% ethanol in water. Microscopic plaques were counted using a stereomicroscope. Drug effects were calculated as a percent reduction in the number of plaques in the presence of each drug concentration compared to the number observed in the absence of drug. Ganciclovir was used as a positive control in all experiments.
The EC50 values obtained according to this assay for certain thiazolyl derivatives of this invention are listed in the following tables under the heading PRA CMV.

[4] = molecular target: T1, HSV-1 helicase-primase (Human herpesvirus 1, UniProt P10189+P10236); test: HSV-1 DNA-dependent ATPase assay (inhibition of HSV-1 helicase-primase); format: biochemical; details: Group 1 Table 1
T1 construct: made in house; host or cells: Sf21 insect cells triply infected with recombinant baculoviruses
T1 sequence (P10189 whole entry): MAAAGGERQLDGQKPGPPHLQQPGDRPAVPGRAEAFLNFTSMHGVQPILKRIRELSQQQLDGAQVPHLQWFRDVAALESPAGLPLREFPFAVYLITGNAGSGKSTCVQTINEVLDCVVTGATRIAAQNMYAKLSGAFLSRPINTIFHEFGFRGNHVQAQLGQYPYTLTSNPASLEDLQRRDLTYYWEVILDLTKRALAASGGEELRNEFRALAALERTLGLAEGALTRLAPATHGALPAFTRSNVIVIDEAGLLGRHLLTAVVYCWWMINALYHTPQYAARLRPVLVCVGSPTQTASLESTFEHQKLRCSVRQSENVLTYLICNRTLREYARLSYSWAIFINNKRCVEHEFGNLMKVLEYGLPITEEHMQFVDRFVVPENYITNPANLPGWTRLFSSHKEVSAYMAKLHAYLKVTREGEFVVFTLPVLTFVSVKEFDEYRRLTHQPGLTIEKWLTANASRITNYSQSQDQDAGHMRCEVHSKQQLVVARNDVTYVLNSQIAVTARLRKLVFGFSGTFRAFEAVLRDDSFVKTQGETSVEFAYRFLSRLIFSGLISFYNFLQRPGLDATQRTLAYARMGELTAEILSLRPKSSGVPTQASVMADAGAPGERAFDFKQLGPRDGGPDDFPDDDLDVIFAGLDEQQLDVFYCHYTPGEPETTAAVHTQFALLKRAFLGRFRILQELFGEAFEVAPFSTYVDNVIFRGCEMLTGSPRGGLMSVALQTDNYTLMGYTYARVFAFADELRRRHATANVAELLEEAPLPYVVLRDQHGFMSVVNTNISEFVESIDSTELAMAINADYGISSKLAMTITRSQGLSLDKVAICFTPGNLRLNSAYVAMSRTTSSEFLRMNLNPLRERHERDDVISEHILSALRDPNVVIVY
T1 sequence (P10192 whole entry, further chain): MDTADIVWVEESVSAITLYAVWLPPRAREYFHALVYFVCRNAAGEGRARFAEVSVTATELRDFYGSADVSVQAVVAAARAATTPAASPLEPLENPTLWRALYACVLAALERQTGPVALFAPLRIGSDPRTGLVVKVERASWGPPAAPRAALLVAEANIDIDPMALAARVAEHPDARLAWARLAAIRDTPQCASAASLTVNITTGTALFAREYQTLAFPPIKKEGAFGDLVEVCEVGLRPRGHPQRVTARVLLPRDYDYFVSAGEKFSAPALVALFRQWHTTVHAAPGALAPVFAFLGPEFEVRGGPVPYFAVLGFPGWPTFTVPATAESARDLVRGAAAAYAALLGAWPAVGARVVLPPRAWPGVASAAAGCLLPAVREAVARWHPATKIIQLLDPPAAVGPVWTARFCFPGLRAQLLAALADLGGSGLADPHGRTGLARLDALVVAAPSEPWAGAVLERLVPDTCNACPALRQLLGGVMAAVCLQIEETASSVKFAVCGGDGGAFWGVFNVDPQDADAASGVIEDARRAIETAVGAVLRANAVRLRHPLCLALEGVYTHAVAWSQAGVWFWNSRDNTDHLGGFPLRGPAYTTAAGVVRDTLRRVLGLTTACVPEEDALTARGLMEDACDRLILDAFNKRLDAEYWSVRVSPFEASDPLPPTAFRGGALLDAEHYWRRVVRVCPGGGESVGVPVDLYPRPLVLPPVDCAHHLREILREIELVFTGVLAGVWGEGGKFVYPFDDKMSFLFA
T1 sequence (P10236 whole entry): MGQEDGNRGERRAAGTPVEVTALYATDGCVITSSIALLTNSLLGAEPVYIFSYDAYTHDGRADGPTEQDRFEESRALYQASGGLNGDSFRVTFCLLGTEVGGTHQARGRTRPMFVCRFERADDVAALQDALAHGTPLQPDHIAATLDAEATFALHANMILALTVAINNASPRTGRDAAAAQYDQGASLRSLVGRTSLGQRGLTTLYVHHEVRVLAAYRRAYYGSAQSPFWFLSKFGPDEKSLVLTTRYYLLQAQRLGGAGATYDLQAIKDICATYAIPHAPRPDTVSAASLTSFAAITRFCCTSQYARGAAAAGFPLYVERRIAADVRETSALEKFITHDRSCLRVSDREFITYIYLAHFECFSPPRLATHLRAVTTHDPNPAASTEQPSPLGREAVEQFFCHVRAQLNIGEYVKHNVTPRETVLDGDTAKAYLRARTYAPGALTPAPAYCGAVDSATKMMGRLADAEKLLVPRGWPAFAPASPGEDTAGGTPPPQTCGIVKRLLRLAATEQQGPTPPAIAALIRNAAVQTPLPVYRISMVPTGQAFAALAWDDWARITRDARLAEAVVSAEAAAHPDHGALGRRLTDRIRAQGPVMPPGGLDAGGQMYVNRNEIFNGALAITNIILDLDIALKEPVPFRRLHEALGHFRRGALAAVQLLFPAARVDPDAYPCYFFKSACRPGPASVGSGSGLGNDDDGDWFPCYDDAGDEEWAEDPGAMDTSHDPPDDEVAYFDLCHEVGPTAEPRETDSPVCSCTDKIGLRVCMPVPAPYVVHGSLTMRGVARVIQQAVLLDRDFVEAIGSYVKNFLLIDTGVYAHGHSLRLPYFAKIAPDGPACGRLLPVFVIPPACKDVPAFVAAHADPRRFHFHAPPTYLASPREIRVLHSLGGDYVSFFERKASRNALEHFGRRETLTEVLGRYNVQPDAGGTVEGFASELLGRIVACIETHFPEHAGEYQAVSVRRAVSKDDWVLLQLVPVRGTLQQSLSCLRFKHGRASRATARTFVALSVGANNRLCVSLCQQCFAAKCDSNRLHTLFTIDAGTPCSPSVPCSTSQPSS
Excerpt: A) HSV-1 DNA-Dependent ATP Assay (an in Vitro Assay Based on the Inhibition of HSV-1 Helicase-primase).
a) Preparation of enzyme: HSV-1 helicase-primase holoenzyme was produced in triply infected Sf21 cells using recombinant baculoviruses expressing the UL5, UL8 and UL52 helicase-primase subunits, as described by S. Dracheva et al., J. Biol. Chem. 1995, 270, 14148. The crude enzyme was purified by ammonium sulfate precipitation, Source 15Q® chromatography and Sephacryl® S-300 HR gel filtration (both purification systems can be obtained from Pharmacia Biotech Inc., Montreal, Quebec, Canada), see S. Dracheva et al., supra.
b) Assay: The DNA-dependent ATPase assay, described by J. J. Crute et al., Nucleic Acids Res. 1988, 16, 6585, was modified and used to evaluate the capability of the compounds of Group 1-formula 1 to inhibit HSV-1 helicase-primase activity. The reaction mixtures (80 μL each) contained 40 mM 4-(2-hydroxyethyl)-1-piperazineethanesulfonic acid (HEPES, pH 7.5), 10% (v/v) glycerol, 5.5 mM MgCl2, 1 mM DL-dithiothreitol (DTT), 50 μg/mL acetylated bovine serum albumin, 3.3% (v/v) DMSO, 4 mM ATP, 25 μM single-stranded M13 DNA hybridized to double-tailed 68-mer oligonucleotide and 3 μg/mL HSV-1 helicase-primase. After incubation for 20 min at 34°, formation of inorganic phosphate from hydrolysis of ATP was monitored spectrophotometrically at 650 nm using acidic ammonium molybdate/malachite green reagent, P. A. Lanzetta et al., Anal. Biochem. 1979, 100, 95. DNA-dependent ATPase activity was calculated from the net absorbance change in the presence and absence of inhibition.

[5] = tested on: HSV-1 strain F or KOS; test: Inhibition of herpes simplex virus (HSV-1) replication in cell culture (BHK-21 cells, glycoprotein C ELISA); format: cell-based; details: Group 1 Table 1
Description: B) Inhibition of Herpes Simplex Virus (HSV-1) Replication in Cell Culture
Assay: BHK-21 cells clone 13 (ATCC CCL10) were incubated for two days in 850 cm^2 roller bottles (2×10^7 cells/bottle) with α-MEM medium (Gibco Canada Inc., Burlington, Ontario, Canada) supplemented with 8% (v/v) fetal bovine serum (FBS, Gibco Canada, Inc.). The cells were trypsinized and then 3,000 cells in 100 μL of fresh medium were transferred into each well of a 96-well microtiter plate. The cells were incubated at 37° for a period of 3 days to reach a density of 50,000 cells per well. The cells were washed twice with 100 μL of α-MEM supplemented with 2% heat inactivated FBS and incubated for 1-2 hours in 100 μL of the same medium.
Thereafter, the cells were infected with HSV-1 strain F or KOS (multiplicity of infection=0.05 PFU/cell) in 50 μL of α-MEM supplemented with 2% heat inactivated FBS. Following one hour of virus absorption at 37°, the medium was removed and the cells were washed with α-MEM supplemented with 2% heat inactivated FBS (2×100 μL). The cells were incubated with or without 100 μL of the appropriate concentration of test reagent in α-MEM medium supplemented with 2% heat inactivated FBS. After 24 hours of incubation at 37°, the extent of viral replication was determined by an ELISA assay; for instance, the following assay that detects the late glycoprotein C of HSV-1.
Cells were fixed in the microtiter plate with 100 μL of 0.063% glutaraldehyde in phosphate buffered saline for 30 min at room temperature. The microtiter plate was then washed once with casein blocking solution and blocked with 200 μL of the same solution for one hour at room temperature. Thereafter, 100 μL of mAb C11 recognizing the glycoprotein C of HSV-1 (see E. Trybala et al., Journal of General Virology, 1994, 75, 743) was added to each well for two hours at room temperature. The plate was washed three times with phosphate buffered saline containing 0.05% polyoxyethylene (20) sorbitan monooleate. The cells were incubated with 100 μL of sheep anti-mouse IgG horseradish peroxidase for one hour at room temperature in the dark.
The plate was washed three times with 200 μL of the above-noted phosphate buffer saline preparation, and then once with 0.1 M sodium citrate (pH 4.5). Thereafter, 100 μL of orthophenylenediamine dihydrochloride (OPD, Gibco, Canada Inc.) was added to each well. The plate was agitated on a microplate shaker for 30 min in the dark. Color development was monitored at 450 nm using a microplate spectrophotometer.
SAS was used to calculate % inhibition of viral replication and to generate EC50 values.

[6] = Human betaherpesvirus 5, AD169, Hs68

melting point	SMILES	Cytotoxic at this concentration ([1]; asterisk in PRA CMV)	other results
	Cc1ccccc1CN(CC(=O)Nc1ccc(-c2csc(N)n2)cc1)C(=O)Cc1ccccn1 [Example 127]	25* μM	
	CCCC(CCC)N(CC(=O)Nc1ccc(-c2csc(N)n2)cc1)C(=O)OC(C)(C)C [Example 111]		Cytotoxic at this concentration ([1]; asterisk in ELISA CMV column): 4.0* μM
	CCCC(CCC)N(CC(=O)Nc1ccc(-c2csc(N)n2)cc1)C(=O)C1CCCCC1 [Example 82]	7* μM	
	Nc1nc(-c2ccc(NC(=O)CN(CC3CCCCC3)S(=O)(=O)N3CCOCC3)cc2)cs1 [Example 107]	12* μM	EC50 [2, 6]: 1100 nM; EC50 [3, 6]: 12000 nM; IC50 [4]: 2600 nM
	CC(c1ccccc1)N(CC(=O)Nc1ccc(-c2csc(N)n2)cc1)C(=O)C1CCCCC1 (centres unmarked) [Example 53]		EC50 [2]: 3200 nM; EC50 [3]: 12000 nM; EC50 [5]: 3 nM; IC50 [4]: 38 nM
160 to 162 °C	CN(C(=O)CNCc1ccccc1)c1ccc(-c2csc(N)n2)cc1 [Example 10, N-{4-(2-Amino-4-thiazolyl)phenyl}-N-methyl-2-{(phenylmethyl)amino)acetamide]		
227 to 230 °C	NC(=O)N(Cc1ccc(F)cc1)c1ccc(-c2csc(N)n2)cc1 [Example 2, N-{4-(2-Amino-4-thiazolyl)phenyl}-N-{(4-fluorophenyl)methyl}urea]		
214.5 to 215.5 °C	Nc1nc(-c2ccc(NC(=O)CN(Cc3ccccc3)C(=O)C3CCCCC3)cc2)cs1 [Example 4, N-{2-{{4-(2-Amino-4-thiazolyl)phenyl)amino}-2-oxoethyl}-N-(phenylmethyl)cyclohexanecarboxamide]		
162 to 163 °C	Nc1nc(-c2ccc(NC(=O)CNCc3ccccc3)cc2)cs1 [Example 2, N-{4-(2-Amino-4-thiazolyl)phenyl}-2-{(phenylmethyl)-amino}acetamide]		
	Nc1nc(-c2ccc(NC(=O)CN(Cc3ccccc3)C(=O)Cc3cccnc3)cc2)cs1 [Example 113]	>50* μM	
	CC(c1ccccc1)N(CC(=O)Nc1ccc(-c2csc(N)n2)cc1)C(=O)OC(C)(C)C (centres unmarked) [Example 88]		EC50 [2]: > 47000 nM; EC50 [5]: 1200 nM; IC50 [4]: 2400 nM
	CCC(CC)C(=O)N(CC(=O)Nc1ccc(-c2csc(N)n2)cc1)Cc1ccccc1 [Example 104]	>18* μM	
183 to 185 °C	CC(C)(C)OC(=O)N[C@@H](Cc1ccccc1)C(=O)Nc1ccc(-c2csc(N)n2)cc1 [Example 11, tert-Butyl N-{2-{{4-(2-Amino-4-thiazolyl)phenyl}-amino}-2-oxo-1(S)-(phenylmethyl)ethyl}carbamate]		
	Nc1nc(-c2ccc(NC(=O)CN(CC3CCCCC3)C(=O)C3CCCC3)cc2)cs1 [Example 63]	>21* μM	
178 to 179 °C	CCCCN(CCCC)C(=O)C(=O)Nc1ccc(-c2csc(N)n2)cc1 [Example 4, N-{4-(2-Amino-4-thiazolyl)phenyl}-N′,N′-dibutylethanediamide]		
132 to 133 °C	Nc1nc(-c2ccc(NC(=O)[C@@H]3CCCN3C(=O)c3ccccc3)cc2)cs1 [Example 14, N-{4-(2-Amino-4-thiazolyl)phenyl}1-benzoyl-2(S)-pyrrolidinecarboxamide]		
238 to 239 °C	CC(C)(C)OC(=O)N1CCC[C@H]1C(=O)Nc1ccc(-c2csc(N)n2)cc1 [Example 13, tert-Butyl 2(S)-{{{4-(2-Amino-4-thiazolyl)phenyl}-amino}carbonyl}-1-pyrrolidinecarboxylate]		

SMILES	melting point	Cytotoxic at this concentration ([1]; asterisk in PRA CMV)	other results
Nc1nc(-c2ccc(NC(=O)CN(Cc3ccccc3)C(=O)N3CCOCC3)cc2)cs1 [Example 6, N-{2-{{4-(2-Amino-4-thiazolyl)phenyl}amino}-2-oxoethyl}-N-(phenylmethyl)-4-morpholinecarboxamide]	105 °C (dec.)		
